biological target: USP14 (Homo sapiens (Human), UniProt P54578); test: Usp14 inhibition assay (Example 57B, B-series compounds); format: biochemical; conditions: IC50 class; average value from a minimum of two experimental determinations
From the text: Example 57B: Usp14 Inhibition Assay
The IC50 values in the Table below represent the average value from a minimum of two experimental determinations.

Chain of USP14 (P54578 whole entry, looked up): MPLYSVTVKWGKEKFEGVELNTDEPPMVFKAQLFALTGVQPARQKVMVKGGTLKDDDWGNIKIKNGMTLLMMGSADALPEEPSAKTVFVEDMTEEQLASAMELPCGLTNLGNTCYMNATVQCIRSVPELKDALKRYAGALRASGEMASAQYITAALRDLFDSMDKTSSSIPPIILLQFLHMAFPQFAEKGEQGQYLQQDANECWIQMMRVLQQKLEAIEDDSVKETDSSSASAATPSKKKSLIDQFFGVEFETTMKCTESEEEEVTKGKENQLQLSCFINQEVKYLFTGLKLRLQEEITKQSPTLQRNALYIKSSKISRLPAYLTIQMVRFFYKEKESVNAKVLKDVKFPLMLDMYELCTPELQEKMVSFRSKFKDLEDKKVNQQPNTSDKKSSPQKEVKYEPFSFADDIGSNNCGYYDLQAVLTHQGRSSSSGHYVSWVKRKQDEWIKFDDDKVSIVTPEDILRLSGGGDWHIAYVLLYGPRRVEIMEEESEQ

First: Cc1c(C(=O)CN2C3CCC2[C@@H](O)C3)cc(C2CC(F)C2)n1-c1ccc(C#N)cc1 (mixture of isomers) [Example 132B, (±)-4-(5-(3-Fluorocyclobutyl)-3-(2-((2R)-2-hydroxy-7-azabicyclo[2.2.1]heptan-7-yl)acetyl)-2-methyl-1H-pyrrol-1-yl)benzonitrile]
Second: Cc1c(C(=O)CN2[C@@H]3CC[C@H]2[C@@H](O)C3)cc(C2CC(F)(F)C2)n1-c1ccc(C#N)cc1 (racemic) [Example 131B, (±)-4-(5-(3,3-Difluorocyclobutyl)-3-(2-((1R,2R,4S)-2-hydroxy-7-azabicyclo[2.2.1]heptan-7-yl)acetyl)-2-methyl-1H-pyrrol-1-yl)benzonitrile]
The IC50 of the first is lower: < 50 nM for the first, 50 to 500 nM for the second. The first is the more potent here.

Cc1c(C(=O)CN2C3CCC2[C@@H](O)C3)cc(CCCC2(C)COC2)n1-c1ccc(C#N)cc1 (mixture of isomers) [Example 42B, (±)-4-(3-(2-((2R)-2-Hydroxy-7-azabicyclo[2.2.1]heptan-7-yl)acetyl)-2-methyl-5-(3-(3-methyloxetan-3-yl)propyl)-1H-pyrrol-1-yl)benzonitrile] and Cc1c(C(=O)CN2[C@@H]3CC[C@H]2[C@@H](O)C3)cc(CCCC2COC2)n1-c1ccc(C#N)cc1 (racemic) [Example 22B, (±)-4-(3-(2-((1R,2R,4S)-2-Hydroxy-7-azabicyclo[2.2.1]heptan-7-yl)acetyl)-2-methyl-5-(3-(oxetan-3-yl)propyl)-1H-pyrrol-1-yl)benzonitrile] cannot be ordered by IC50: < 50 nM for the first, < 50 nM for the second.

Compared with Cc1nc(-c2cc(C(=O)CN3[C@@H]4CC[C@H]3[C@@H](O)C4)c(C)n2-c2ccc(C#N)cc2)cs1 (racemic) [Example 144B, (±)-4-(3-(2-((1R,2R,4S)-2-Hydroxy-7-azabicyclo[2.2.1]heptan-7-yl)acetyl)-2-methyl-5-(2-methylthiazol-4-yl)-1H-pyrrol-1-yl)benzonitrile], Cc1c(C(=O)CN2[C@@H]3CC[C@H]2[C@@H](O)C3)cc(-c2csc(C(F)(F)F)n2)n1-c1ccc(C#N)cc1 (racemic) [Example 145B, (±)-4-(3-(2-((1R,2R,4S)-2-Hydroxy-7-azabicyclo[2.2.1]heptan-7-yl)acetyl)-2-methyl-5-(2-(trifluoromethyl)thiazol-4-yl)-1H-pyrrol-1-yl)benzonitrile] is higher in IC50: 50 to 500 nM for the first, > 500 nM for the second. The first is the more potent here.

First: Cc1c(C(=O)CN2C3CCC2CC3)cc(CC2COC2)n1-c1ccc(C#N)cc1 [Example 54B, 4-(3-(2-(7-Azabicyclo[2.2.1]heptan-7-yl)acetyl)-2-methyl-5-(oxetan-3-ylmethyl)-1H-pyrrol-1-yl)benzonitrile]
Second: Cc1cc(C(=O)CN2C3CCCC2CC3)c(C)n1-c1ccc(C#N)cc1 [Example 69B, 4-(3-(2-(8-Azabicyclo[3.2.1]octan-8-yl)acetyl)-2,5-dimethyl-1H-pyrrol-1-yl)benzonitrile]
The IC50 of the first is lower: < 50 nM for the first, 50 to 500 nM for the second.

First: Cc1c(C(=O)CN2C3CCC2[C@@H](O)C3)cc(C#CCCC#N)n1-c1ccc(C#N)cc1 (mixture of isomers) [Example 10B, (±)-4-(5-(4-Cyanobut-1-yn-1-yl)-3-(2-((2R)-2-hydroxy-7-azabicyclo[2.2.1]heptan-7-yl)acetyl)-2-methyl-1H-pyrrol-1-yl)benzonitrile]
Second: Cc1c(C(=O)CN2C3CCC2[C@@H](O)C3)cc(Cl)n1-c1ccc(C#N)cc1 (mixture of isomers) [Example 96B, (±)-4-(5-Chloro-3-(2-((2R)-2-hydroxy-7-azabicyclo[2.2.1]heptan-7-yl)acetyl)-2-methyl-1H-pyrrol-1-yl)benzonitrile]
The IC50 of the first is lower: < 50 nM for the first, 50 to 500 nM for the second.

Cc1cc(C(=O)CN2[C@@H]3CC[C@@H]2CC(O)C3)c(C)n1-c1ccc(C#N)cc1 (stereo partly drawn) [Example 66B, 4-(3-(2-((1R,3r,5S)-3-Hydroxy-8-azabicyclo[3.2.1]octan-8-yl)acetyl)-2,5-dimethyl-1H-pyrrol-1-yl)benzonitrile] and COC1C[C@H]2CC[C@H](C1)N2CC(=O)c1cc(C)n(-c2ccc(C#N)cc2)c1C (stereo partly drawn) [Example 89B, 4-(3-(2-((1R,3s,5S)-3-Methoxy-8-azabicyclo[3.2.1]octan-8-yl)acetyl)-2,5-dimethyl-1H-pyrrol-1-yl)benzonitrile] fall in the same range of IC50: 50 to 500 nM for the first, 50 to 500 nM for the second.

Cc1cc(C(=O)CN2[C@@H]3CC[C@H]2[C@@](C)(O)C3)c(C)n1-c1ccc(C#N)cc1 (racemic) [Example 71B, (±)-4-(3-(2-((1R,2R,4S)-2-Hydroxy-2-methyl-7-azabicyclo[2.2.1]heptan-7-yl)acetyl)-2,5-dimethyl-1H-pyrrol-1-yl)benzonitrile] and Cc1cc(C(=O)CN2[C@@H]3CC[C@H]2[C@](O)(C(C)(C)C)C3)c(C)n1-c1ccc(C#N)cc1 (racemic) [Example 72B, (±)-4-(3-(2-((1R,2S,4S)-2-(tert-Butyl)-2-hydroxy-7-azabicyclo[2.2.1]heptan-7-yl)acetyl)-2,5-dimethyl-1H-pyrrol-1-yl)benzonitrile] cannot be ordered by IC50: > 500 nM for the first, > 500 nM for the second.

Cc1c(C(=O)CN2[C@@H]3CC[C@H]2[C@@H](O)C3)cc(CCCC2CCOCC2)n1-c1ccc(C#N)cc1 (racemic) [Example 2B, (±)-4-(3-(2-((1S,2S,4R)-2-Hydroxy-7-azabicyclo[2.2.1]heptan-7-yl)acetyl)-2-methyl-5-(3-(tetrahydro-2H-pyran-4-yl)propyl)-1H-pyrrol-1-yl)benzonitrile] and Cc1c(C(=O)CN2C3CCC2[C@@H](O)C3)cc(CCCCS(C)(=O)=O)n1-c1ccc(C#N)cc1 (mixture of isomers) [Example 8B, (±)-4-(3-(2-((1R,2R,4S)-2-Hydroxy-7-azabicyclo[2.2.1]heptan-7-yl)acetyl-2-methyl-5-(4-(methylsulfonyl)butyl)-1H-pyrrol-1-yl)benzonitrile] cannot be ordered by IC50: < 50 nM for the first, < 50 nM for the second.

Compared with Cc1c(C(=O)CN2C3CCC2CC3)cc(CCCCS(C)(=O)=O)n1-c1ccc(Cl)cc1 [Example 18B, 2-(7-Azabicyclo[2.2.1]heptan-7-yl)-1-(1-(4-chlorophenyl)-2-methyl-5-(4-(methylsulfonyl)butyl)-1H-pyrrol-3-yl)ethan-1-one], Cc1c(C(=O)CN2C3CCC2CC3)cc(/C=C/CCS(C)(=O)=O)n1-c1ccc(Cl)cc1 [Example 34B, (E)-2-(7-Azabicyclo[2.2.1]heptan-7-yl)-1-(1-(4-chlorophenyl)-2-methyl-5-(4-(methylsulfonyl)but-1-en-1-yl)-1H-pyrrol-3-yl)ethan-1-one] is lower in IC50: 50 to 500 nM for the first, < 50 nM for the second.

First: Cc1cc(C(=O)CN2[C@@H]3C=C(C(F)(F)F)[C@H]2CC3)c(C)n1-c1ccc(C#N)cc1 (racemic) [Example 141B, (±)-4-(2,5-Dimethyl-3-(2-((1R,4S)-2-(trifluoromethyl)-7-azabicyclo[2.2.1]hept-2-en-7-yl)acetyl)-1H-pyrrol-1-yl)benzonitrile]
Second: Cc1cc(C(=O)CN2[C@H]3CCC[C@@H]2[C@@H](O)C3)c(C)n1-c1ccc(C#N)cc1 (racemic) [Example 83B, (±)-4-(3-(2-((1S,5R,6S)-6-Hydroxy-8-azabicyclo[3.2.1]octan-8-yl)acetyl)-2,5-dimethyl-1H-pyrrol-1-yl)benzonitrile]
The IC50 of the first is higher: > 500 nM for the first, 50 to 500 nM for the second. The second is the more potent here.

First: Cc1cc(C(=O)CN2C3CC4CC(C3)CC2C4)c(C)n1-c1ccc(C#N)cc1 [Example 80B, 4-(3-(2-((5r,7r)-2-Azaadamantan-2-yl)acetyl)-2,5-dimethyl-1H-pyrrol-1-yl)benzonitrile]
Second: Cc1cc(C(=O)CN2C3CC4CC2C(C3)O4)c(C)n1-c1ccc(C#N)cc1 (racemic) [Example 92B, (±)-4-(3-(2-((2R,3aS,5R,6aS)-Hexahydro-4H-2,5-methanofuro[3,2-b]pyrrol-4-yl)acetyl)-2,5-dimethyl-1H-pyrrol-1-yl)benzonitrile]
The IC50 of the first is lower: < 50 nM for the first, 50 to 500 nM for the second.

Cc1cc(C(=O)CN2C3CCC2[C@@H](O)C3)c(C)n1-c1ccc(C#N)cc1F (mixture of isomers) [Example 91B, (±)-3-Fluoro-4-(3-(2-((2R)-2-hydroxy-7-azabicyclo[2.2.1]heptan-7-yl)acetyl)-2,5-dimethyl-1H-pyrrol-1-yl)benzonitrile] and CO[C@H]1C[C@H]2CC[C@@H]1N2CC(=O)c1cc(C)n(-c2ccc(C#N)cc2)c1C (racemic) [Example 70B, (±)-4-(3-(2-((1R,2R,4S)-2-Methoxy-7-azabicyclo[2.2.1]heptan-7-yl)acetyl)-2,5-dimethyl-1H-pyrrol-1-yl)benzonitrile] fall in the same range of IC50: 50 to 500 nM for the first, 50 to 500 nM for the second.

Cc1c(C(=O)CN2C3CCC2[C@@H](O)C3)c(C)n(-c2ccc(C#N)cc2)c1C (mixture of isomers) [Example 76B, (±)-4-(3-(2-((2R)-2-Hydroxy-7-azabicyclo[2.2.1]heptan-7-yl)acetyl)-2,4,5-trimethyl-1H-pyrrol-1-yl)benzonitrile] and Cc1c(C(=O)CN2C3CCC2C(O)C3)cc([C@@H](C)C2CCC2)n1-c1ccc(C#N)cc1 (mixture of isomers) [Example 150B, (±)-4-(5-((S)-1-Cyclobutylethyl)-3-(2-((2R)-2-hydroxy-7-azabicyclo[2.2.1]heptan-7-yl)acetyl)-2-methyl-1H-pyrrol-1-yl)benzonitrile] fall in the same range of IC50: 50 to 500 nM for the first, 50 to 500 nM for the second.

First: Cc1c(C(=O)CN2C3CCC2CC3)cc(CC2CCS(=O)(=O)CC2)n1-c1ccc(Cl)cc1 [Example 25B, 2-(7-Azabicyclo[2.2.1]heptan-7-yl)-1-(1-(4-chlorophenyl)-5-((1,1-dioxidotetrahydro-2H-thiopyran-4-yl)methyl)-2-methyl-1H-pyrrol-3-yl)ethan-1-one]
Second: Cc1cc(C(=O)CN2C3CCC2[C@@H](CC(C)(C)O)C3)c(C)n1-c1ccc(C#N)cc1 (mixture of isomers) [Example 148B, (±)-4-(3-(2-((2S)-2-(2-Hydroxy-2-methylpropyl)-7-azabicyclo[2.2.1]heptan-7-yl)acetyl)-2,5-dimethyl-1H-pyrrol-1-yl)benzonitrile]
The IC50 of the first is lower: 50 to 500 nM for the first, > 500 nM for the second.

Compared with Cc1cc(C(=O)CN2C3CCC2(CO)CC3)c(C)n1-c1ccc(C#N)cc1 [Example 126B, 4-(3-(2-(1-(Hydroxymethyl)-7-azabicyclo[2.2.1]heptan-7-yl)acetyl)-2,5-dimethyl-1H-pyrrol-1-yl)benzonitrile], Cc1c(C(=O)CN2C3CCC2[C@@H](O)C3)c(Cl)c(CCCCC#N)n1-c1ccc(C#N)c(F)c1 (mixture of isomers) [Example 40B, (±)-4-(3-Chloro-2-(4-cyanobutyl)-4-(2-((2R)-2-hydroxy-7-azabicyclo[2.2.1]heptan-7-yl)acetyl)-5-methyl-1H-pyrrol-1-yl)-2-fluorobenzonitrile] is lower in IC50: 50 to 500 nM for the first, < 50 nM for the second.
